Assay results taken from patent US11753411B2, “Substituted pyrazolo[1,5-a]pyrimidines as TYK2 pseudokinase ligands” (Ventyx Biosciences, Inc., priority 2019, dated 2023).
Where two headings read alike, the source gives them in different places.

Legend:
IFN-a/Jak1 Tyk2 = assay: Co-stimulation assay in lysed whole blood: IFNa (JAK1/TYK2) stimulated STAT1 phosphorylation; assay type: cell-based; conditions: Homo sapiens, 20 min, 100 ng/mL IFNa (with 10 ng/mL GM-CSF), pSTAT by flow cytometry
In short: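 Lysed human whole blood (RBC-lysed, resuspended in cRPMI) pre-incubated with compound 1 h at 37 °C, then stimulated 20 min with IFNa 100 ng/mL plus GM-CSF 10 ng/mL (final). Fixed, permeabilised, stained for pSTAT1 (PE) and pSTAT5 (AF488); flow cytometry read-out, ≥5,000–10,000 cells acquired.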

Hepatocyte stability = assay type: in vitro ADME, human; conditions: for half-life at 1 μM: human, Table 3 of Example 15: 1 μM test compound, 0.5 million cells/mL hepatocytes, 37° C.
Description: Metabolic stability of compounds can be evaluated using human, rat, mouse, or other animal hepatocytes to predict intrinsic clearance. Human LiverPool™ 20-donor and animal cryopreserved hepatocytes were obtained from BioreclamationIVT.
Cryopreserved hepatocytes were removed from a liquid nitrogen tank and thawed in a 37° C. water bath. As soon as the cells pull away from the vial wall, they were decanted into 48 mL of warm HT medium. Cells were centrifuged for four minutes at 420 rpm (50 g). After removing the supernatant, the pellet was re-suspended in warm DMEM medium. Cell density was counted by a hemacytometer.
The assay was carried out in 96-well microtiter plates. Compound 5 was incubated for 0, 60, 120, and 180 minutes at 37° C. with hepatocytes. Reaction mixtures (50 μL) contain a final concentration of 1 μM test compound, 0.5 million cells/mL hepatocytes in the DMEM medium. At each of the time points (for example, 0, 1, 2, and 3 hours), 200 μL of quench solution (100% acetonitrile with 0.1% formic acid) with internal standard was transferred to each well. Midazolam was included as a positive control to verify assay performance. Plates were sealed and centrifuged at 4° C. for 15 minutes at 4000 rpm. The supernatant was transferred to fresh plates for LC/MS/MS analysis.
All samples were analyzed on LC/MS/MS using an AB Sciex API 4000 instrument, coupled to a Shimadzu LC-20AD LC Pump system. Analytical samples were separated using a Waters Atlantis T3 dC18 reverse phase HPLC column (20 mm×2.1 mm) at a flow rate of […]. The mobile phase consists of 0.1% formic acid in water (solvent A) and 0.1% formic acid in 100% acetonitrile (solvent B).
The extent of metabolism was calculated as the disappearance of the test compound, compared to the 0-min control reaction incubations. Initial rates are calculated for the compound concentration and used to determine t½ values and subsequently, the intrinsic clearance, CLint=(0.693)(1/t½ (min))(mL incubation/million cells).

[1] = Rat pharmacokinetics (PK); assay type: in vivo; conditions: IV group and PO group, route of the Cmax not given, urea versus corresponding amide
Description: Rat PK experiments were performed with an IV group and PO group included, with 3 rats per group. The formulation was solution for IV group and either solution or suspension formulation for the oral group(s). Plasma samples were harvested with K2EDTA as anticoagulant at 0.08, 0.25, 0.5, 1, 2, 4, 8, 12 and 24 hours for the IV group and at 0.25, 0.5, 1, 2, 4, 6, 8, 12 and 24 hours for the PO group, and analyzed by fit for purpose LC-MS/MS method. Non-compartmental analysis module in Phoenix WinNonlin® (Version 8.0) was used to assess the pharmacokinetic parameters. Maximum concentration (Cmax) were taken from the observed values.

Row | half-life at 1 μM (Hepatocyte stability) [h] | Cmax ([1]; rat plasma) | SMILES | also measured
1 | – | – | CNc1cc(Nc2cc(F)cc3c2OCCO3)nc2c(NC(=O)N[C@@H]3C[C@@H]3F)cnn12 [Compound 5, 1-(5-((7-fluoro-2,3-dihydrobenzo[b][1,4]dioxin-5-yl)amino)-7-(methylamino)pyrazolo[1,5-a]pyrimidin-3-yl)-3-((1R,2S)-2-fluorocyclopropyl)urea] | IC50 (IFN-a/Jak1 Tyk2): < 1 µM; metabolic stability compared to the corresponding amide compound (Hepatocyte stability; hepatocytes, statement in words): unexpected high metabolic stability
2 | > 6 | – | CNc1cc(Nc2cc(F)cc3c2OCCO3)nc2c(NC(=O)N[C@@H]3C[C@@H]3F)cnn12 [drawing 293] | –
3 | < 1.67 | – | CNc1cc(Nc2cc(F)cc3c2OCCO3)nc2c(C(=O)N[C@@H]3C[C@@H]3F)cnn12 [drawing 294, reference compound] | –
4 | – | 5,000 ng/mL | CNc1cc(Nc2cccc3c2OCCO3)nc2c(NC(=O)NC3CCC3)cnn12 [drawing 287] | –
5 | – | 1,800 ng/mL | CNc1cc(Nc2cccc3c2OCCO3)nc2c(NC(=O)NC3CCC3)cnn12 [drawing 289] | –
6 | – | – | CNC(=O)c1cnn2c(NC)cc(Nc3cc(C)cc(C)c3)nc12 [reference compound] | Cmax ([1]; rat, plasma, read-out: Cmax): 200 ng/mL
